What all share (type): cell-based, human
One experiment concerns MMP-9. The experiment is described as follows: Gelatin zymogram assay of MMP-9 in IL-8 treated artificial tissue. As to conditions: Cell/ECM extracts and culture medium (supernatants); samples collected 24 hours after IL-8 treatment (FIG. 4). As to the method:
(§1) Cell cultures: Three dimensional artificial tissues were created as described above in Example 1 using primary normal human microvascular endothelial cells from adult lung (hMVEC; Clonetics), and primary adult normal human dermal fibroblasts (NHDF; Clonetics). The cultures were set up in either 24-well plates or Transwell units (Becton Dickinson) with polyethylene tetraphthalate filters containing 4 μm pores. Cultures were maintained at 37° C. and of 5% CO2 for at least 2 weeks. Medium was changed 24 hours after the cultures were started and then fed every 48 hours.
Zymography: Zymography was performed using 10% denaturing polyacrylamide gels as previously described (Paech and Christiansen. (1994) In Cell biology: a laboratory handbook. (J. Celis, Ed.) V.3 pp.264-271 San Diego: Academic Press). Briefly, gels to test for gelatinolytic activity contained 1% gelatin (Sigma) and were cast 12 hours before the sample separation. Protein samples were separated at 4° C. with 10 mA constant current for each gel. The proteins were renatured using two washes of 15 minutes each in 2.5% Triton-X100 twice at RT. […]

The next experiment relates to VE-cadherin. As to the kind of experiment: IL-8 treatment of artificial tissue, phosphorylation of VE-Cadherin by immunoblot. The note with it: artificial tissue treated with IL-8 at 50, 100, 300, 600, 1000 ng/ml for 30 minutes; immunoblot (FIG. 3). The protocol: as §1
(§2) Immunoblotting: SDS-PAGE was performed using 10% separating Doucet gels (Doucet, J., and J. Trifaro. A discontinous and highly porous sodium dodecyl sulfatepolyacrylamide slab gel system of high resolution. Anal. Biochem. (1988) 168:265-271.). Protein transfer to nitrocellulose membranes was performed using a wet-transfer apparatus (BioRad) at 100V for 45 min at room temperature. The membranes were blocked for 1 hour in 5% BSA in TTBS (0.05% Tween in Tris buffered saline) and incubated overnight at 4° C. in primary antibody diluted in 1% BSA in TTBS. The membranes were washed 3 times for 20 min each with TTBS, incubated in anti-mouse or anti-rabbit HRP (1:10,000) in 1% BSA for 1 hr, and washed 3 times for 20 minutes each with TTBS. The antibody bound to the membrane was visualized using ECL chemiluminescent kit (Amersham). […]

A further experiment deals with PECAM-1. The experiment is described as follows: IL-8 treatment of artificial tissue, phosphorylation of PECAM-1 by immunoblot. The note with it: artificial tissue treated with IL-8 at 50, 100, 300, 600, 1000 ng/ml for 30 minutes; immunoblot (FIG. 3). As to the method: as §1, §2

As for “IL-8: human chemokine IL-8, used as test compound on the artificial tissue”, in the experiment on MMP-9, the MMP-9 activation result is “increases MMP-9 production and activation in a dose-dependent manner”; the MMP-9 production result is “increases MMP-9 production and activation in a dose-dependent manner”. In addition, the “phosphorylation of VE-cadherin in microvessels” value with VE-cadherin was “stimulates the phosphorylation”. Besides, in the experiment on PECAM-1, the “phosphorylation of PECAM in microvessels” value is given as “stimulates the phosphorylation”.

The record behind these values is patent publication US20030109920A1, “Engineered animal tissue” (The Regents of the University of California, priority 2001, published 2003).
